Measurements published in ChEMBL document CHEMBL4825748, “Rapid Evaluation of Small Molecule Cellular Target Engagement with a Luminescent Thermal Shift Assay” (ACS Med Chem Lett, 2021).
Activity calls are given as the source filed them. The rule behind the calls is not given here.

How the values were obtained:
[1] = molecular target: T1, 5'-AMP-activated protein kinase subunit beta-1 (Homo sapiens) (UniProt Q9Y478); experiment: Binding affinity to HiBiT-tagged PRKAB1 (unknown origin) assessed as shift in melting/aggregation temperature by luminescence based BiTSA assay
T1 sequence (whole entry): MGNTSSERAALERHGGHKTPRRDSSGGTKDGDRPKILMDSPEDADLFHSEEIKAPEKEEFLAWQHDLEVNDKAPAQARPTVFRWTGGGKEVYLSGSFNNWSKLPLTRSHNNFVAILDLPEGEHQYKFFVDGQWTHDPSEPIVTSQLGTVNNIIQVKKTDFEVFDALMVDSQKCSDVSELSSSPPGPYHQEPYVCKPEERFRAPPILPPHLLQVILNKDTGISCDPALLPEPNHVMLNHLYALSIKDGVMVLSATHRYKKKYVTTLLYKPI

[2] = system: Cellular tumor antigen p53 (Homo sapiens), P04637 [R273H]; experiment: Binding affinity to HiBiT-tagged p53 R273H mutant in human MDA-MB-468 cells assessed as p53 refolding by measuring change in melting temperature at 2.5 to 10 uM by luminescence based BiTSA assay; assay type: cell-based; conditions: dose 2.5-10 µM
[3] = system: Cellular tumor antigen p53 (Homo sapiens), P04637 [R273H]; experiment: Binding affinity to HiBiT-tagged p53 R273H mutant in human MDA-MB-468 cells assessed as p53 refolding by measuring change in melting temperature at 25 to 100 uM by luminescence based BiTSA assay; assay type: cell-based; conditions: dose 25-100 µM
[4] = system: GTPase KRas (Homo sapiens), P01116 [G12C]; experiment: Binding affinity to KRAS G12C mutant (unknown origin) by traditional Western blot CETSA analysis
[5] = system: GTPase KRas (Homo sapiens), P01116 [G12C]; experiment: Binding affinity to HiBiT-tagged KRAS G12C mutant in human NCI-H358 cells assessed as stabilization by measuring luminescence signal by BiTSA-ITDR assay; assay type: cell-based
[6] = molecular target: Mitogen-activated protein kinase 14 (Homo sapiens) (UniProt Q16539); experiment: Binding affinity to HiBiT-tagged MAPK14 (unknown origin) assessed as shift in melting/aggregation temperature at 10 uM by luminescence based BiTSA assay
Chain of Mitogen-activated protein kinase 14 (Homo sapiens) (Q16539 whole entry): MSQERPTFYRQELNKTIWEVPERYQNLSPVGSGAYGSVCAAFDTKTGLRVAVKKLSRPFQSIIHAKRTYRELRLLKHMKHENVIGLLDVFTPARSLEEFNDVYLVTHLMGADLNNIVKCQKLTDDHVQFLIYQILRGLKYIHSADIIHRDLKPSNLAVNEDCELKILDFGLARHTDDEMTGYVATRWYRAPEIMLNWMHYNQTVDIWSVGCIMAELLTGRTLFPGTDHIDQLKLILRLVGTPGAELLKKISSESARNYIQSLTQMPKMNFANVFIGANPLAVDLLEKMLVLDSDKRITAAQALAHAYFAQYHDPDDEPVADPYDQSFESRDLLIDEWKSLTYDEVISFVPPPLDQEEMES

Chain of GTPase KRas (Homo sapiens), P01116 [G12C] (P01116 whole entry G12C): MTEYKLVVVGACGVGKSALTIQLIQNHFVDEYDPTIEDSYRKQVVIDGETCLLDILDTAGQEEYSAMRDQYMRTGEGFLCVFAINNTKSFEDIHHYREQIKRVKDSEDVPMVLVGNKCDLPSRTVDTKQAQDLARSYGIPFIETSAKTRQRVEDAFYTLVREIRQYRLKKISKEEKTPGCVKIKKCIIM

In the case of `O[C@@H]1CO[C@H]2[C@@H]1OC[C@H]2Oc1nc2nc(-c3ccc(-c4ccccc4)cc3)c(Cl)cc2[nH]1`, the Activity [1] is reported as “inactive”.
For `CN(C)CCCNc1nc(CN2CCN(C(c3ccc(Cl)cc3)c3ccc(Cl)cc3)CC2)nc2ccccc12`, the Activity [2] was “inactive”.
In the case of `COCC1(CO)C(=O)C2CCN1CC2` (stereo unspecified), the Activity [3] is reported as “inactive”.
In the case of `C=CC(=O)N1CCN(c2ncnc3c(F)c(-c4c(O)cccc4F)c(Cl)cc23)CC1`, the Activity [4] is reported as “Active” and the Activity [5] is reported as “inactive”.
Work on `Cn1c(NC[C@@H](N)Cc2ccccc2)nc(-c2ccncc2)c(-c2ccc3ccccc3c2)c1=O` yielded a Tm [6] of 12.4 °C.
